Laboratory results from patent publication US5827846A, “Carbazole derivatives as agents against multi-drug resistance” (Novartis Corp., priority 1994, dated 1998).

Experiments:
human KB-8511 tumours = assay: In vivo antitumour activity against multidrug-resistant KB-8511 tumours in nude mice; parameters: species or system female Balb/c nude mice; details: for T/C [%] (median tumour volumes treated versus control): KB-8511 tumour
Method: (§1) The determination of the in vivo antitumour activity of test substance B (=N-benzoyl-6-benzyl-staurosporin) against the drug-sensitive parental KB-31 and a multidrug-resistant variant of the KB-31, i.e. the multidrug-resistant variant KB-8511, tumours is carried out in female Balb/c nude mice (Bomholdgaard, Copenhagen, Denmark) bearing serially passaged (minimum of three consecutive transplantations) either the human parental drug-sensitive KB-31 tumours or the human KB-8511 tumours. The KB-8511 tumours overexpress Pgb, the product of the mdr-1 gene (S. Akiyma et al., "Isolation and genetic characterization of human KB cell lines resistant to multiple drug", Somatic Cell and Mol. Gen. 11, 117-126 [1985]). Tumour fragments of approximately 25 mg are transplanted into the left flank of each animal (n=6 per group). […] Tumour growth is monitored twice weekly by measuring perpendicular diameters. Tumour volumes are determined as described by T. Meyer et al., Int. J. Cancer 43, 851-856 (1989), and expressed as relative tumour size (i.e. the increase in tumour volume compared with the tumour volume at the start of the treatment).

[1] = test system: human parental drug-sensitive KB-31 tumours; assay: In vivo antitumour activity against drug-sensitive KB-31 tumours in nude mice; parameters: species or system female Balb/c nude mice; details: KB-31 tumour
Method: as §1

[2] = test system: KB-8511 (drug-resistant, P-glycoprotein [Pgp] overexpressing) cells; assay: Inhibition of cell growth of drug-resistant KB-8511 cells (methylene blue staining, 4 days); type: cell-based, Human; details: 5760 min
Method: The KB-8511 cells are kept as stock in the presence of 10 ng/ml of the antineoplastically active substance Colcemid (demecolcine). […] The plates are then incubated under the conditions mentioned above for 4 days. […] After washing, the dye is eluted with 3% (w/v) aqueous hydrochloric acid. The optical density (OD) per well, which is directly proportional to the number of cells, is then measured with a photometer at 665 nm. The IC50 values are calculated by means of a computer system, using the formula

## CO[C@@H]1[C@H](N(C)C(=O)c2ccccc2)C[C@H]2O[C@]1(C)n1c3ccccc3c3c4c(c5c6ccccc6n2c5c31)C(=O)N(Cc1ccccc1)C4 [B, N-benzoyl-6-benzyl-staurosporin]
Human KB-8511 tumours; 25 mg/kg p.o. 4 hours prior to adriamycin 9.0 mg/kg i.v.
  Sensitisation of KB-8511 tumours to adriamycin: sensitises the multi-drug resistant KB-8511 tumours to adriamycin
Human KB-8511 tumours; 1 × 25 mg/kg p.o.
  T/C [%] (median tumour volumes treated versus control): 93%
[1]; 1 × 25 mg/kg p.o.
  T/C [%] (median tumour volumes treated versus control): 91%
[2]; B 0.1 μmol alone
  % growth of KB 8511 cells: 92%
[2]; B 1 μmol alone (Example 10)
  % growth of KB 8511 cells: 95%
[2]; B 1 μmol alone (Example 11)
  % growth of KB 8511 cells: 82%

## COc1cccc2c1C(=O)c1c(O)c3c(c(O)c1C2=O)C[C@@](O)(C(=O)CO)C[C@@H]3O[C@H]1C[C@H](N)[C@H](O)[C@H](C)O1 [C, adriamycin]
Human KB-8511 tumours; 1 × 9 mg/kg i.v.
  T/C [%] (median tumour volumes treated versus control): 89%
[1]; 1 × 9 mg/kg i.v.
  T/C [%] (median tumour volumes treated versus control): 13%
[1]; adriamycin 1×9 mg/kg i.v. alone, on day 5
  Maximal tumour regression: 24%

## CC[C@]1(O)C[C@@H]2CN(CCc3c([nH]c4ccccc34)[C@@](C(=O)OC)(c3cc4c(cc3OC)N(C)[C@H]3[C@@](O)(C(=O)OC)[C@H](OC(C)=O)[C@]5(CC)C=CCN6CC[C@]43[C@@H]65)C2)C1 [A, vinblastine]
[2]; A 2.34 ng/ml alone
  % growth of KB 8511 cells: 101%
[2]; A 4.69 ng/ml alone
  % growth of KB 8511 cells: 101%
[2]; A 9.38 ng/ml alone
  % growth of KB 8511 cells: 98%
[2]; A 18.8 ng/ml alone
  % growth of KB 8511 cells: 98%
[2]; A 37.5 ng/ml alone
  % growth of KB 8511 cells: 98%
[2]; A 75.0 ng/ml alone
  % growth of KB 8511 cells: 90%
[2]; A 150 ng/ml alone
  % growth of KB 8511 cells: 66%
[2]; A 300 ng/ml alone
  % growth of KB 8511 cells: 14%
